{"source": "patent US20230017045A1", "about": "“PYRIDINE AND PYRIMIDINE CARBOXYLATE HERBICIDES AND METHODS OF USE THEREOF” (Dow AgroSciences LLC, priority 2017, published 2023)", "data": [{"test_system": "test plant species", "test": "Post-emergent herbicidal activity test (greenhouse, foliar spray, visual growth reduction)", "format": "in vivo", "conditions": "post-emergence, 336 h, ALOMY: blackgrass (Alopecurus myosuroides), 140 g ai/ha, 14 days after application, read-out: Visual Growth Reduction (%) 14 Days After Application, ALOMY", "description": "(§1) Post-emergent Test: Seeds or nutlets of the desired test plant species were planted in Sun Gro Metro-Mix® 360 planting mixture, which typically has a pH of 6.0 to 6.8 and an organic matter content of about 30 percent, in plastic pots with a surface area of 64 square centimeters. In some aspects, to ensure good germination and healthy plants, a fungicide treatment and/or other chemical or physical treatment was applied. The plants were grown for 7-21 d in a greenhouse with an approximate 15 h photoperiod which was maintained at 23-29° C. during the day and 22-28° C. during the night. Nutrients and water were added on a regular basis and supplemental lighting was provided with overhead metal halide 1000-Watt lamps as necessary. Plants were used for testing when they reached the first or second true leaf stage. A weighed amount, determined by the highest rate to be tested, of each test compound was placed in a 25 mL glass vial and was dissolved in 4 mL of a 97:3 v/v mixture of acetone and DMSO to obtain concentrated stock solutions. […] The concentrated stock solutions obtained were diluted with 20 mL of an aqueous mixture containing acetone, water, isopropyl alcohol, DMSO, […] crop oil concentrate, and X-77 surfactant in a 48.5:39:10:1.5:1.0:0.02 v/v ratio to obtain spray solutions containing the application rate. Compound requirements are based upon a 12 mL application volume at a rate of 187 liters per hectare (L/ha). Formulated compounds were applied to the plant material with an overhead Mandel track sprayer equipped with […] nozzles calibrated to deliver 187 L/ha over an application area of 0.64 square meters at a spray height of 18 inches (43 cm) above the average plant canopy height. Control plants were sprayed in the same manner with the solvent blank. The treated plants and control plants were placed in a greenhouse as described above and watered by subirrigation to prevent wash-off of the test compounds. After 14 d, the condition of the test plants as compared with that of the nontreated and control plants was determined visually and scored on a scale of 0 to 100 percent where 0 corresponds to no injury and 100 corresponds to complete control. In the reporting of the results, Table A: Percent Growth Reduction Conversion Table was used.", "units": {"pest or weed control at 140 g/ha": "%"}, "values": [{"smiles": "COC(=O)c1nc(-c2ccc(C(F)(F)F)cc2Cl)c(I)cc1Cl", "note": "[F6, Methyl 3-chloro-6-(2-chloro-4-(trifluoromethyl)phenyl)-5-iodopicolinate]", "pest or weed control at 140 g/ha": "0 to 29"}]}, {"test_system": "test plant species", "test": "Post-emergent herbicidal activity test (greenhouse, foliar spray, visual growth reduction)", "format": "in vivo", "conditions": "post-emergence, 336 h, AMARE: redroot pigweed (Amaranthus retroflexus), 140 g ai/ha, 14 days after application, read-out: Visual Growth Reduction (%) 14 Days After Application, AMARE", "description": "as §1", "units": {"pest or weed control at 140 g/ha": "%"}, "values": [{"smiles": "COC(=O)c1nc(-c2ccc(C(F)(F)F)cc2Cl)c(I)cc1Cl", "note": "[F6, Methyl 3-chloro-6-(2-chloro-4-(trifluoromethyl)phenyl)-5-iodopicolinate]", "pest or weed control at 140 g/ha": "0 to 29"}]}, {"test_system": "test plant species", "test": "Post-emergent herbicidal activity test (greenhouse, foliar spray, visual growth reduction)", "format": "in vivo", "conditions": "post-emergence, 336 h, AVEFA: wild oat (Avena fatua), 140 g ai/ha, 14 days after application, read-out: Visual Growth Reduction (%) 14 Days After Application, AVEFA", "description": "as §1", "units": {"pest or weed control at 140 g/ha": "%"}, "values": [{"smiles": "COC(=O)c1nc(-c2ccc(C(F)(F)F)cc2Cl)c(I)cc1Cl", "note": "[F6, Methyl 3-chloro-6-(2-chloro-4-(trifluoromethyl)phenyl)-5-iodopicolinate]", "pest or weed control at 140 g/ha": "0 to 29"}]}, {"test_system": "test plant species", "test": "Post-emergent herbicidal activity test (greenhouse, foliar spray, visual growth reduction)", "format": "in vivo", "conditions": "post-emergence, 336 h, CHEAL: lambsquarters (Chenopodium album), 140 g ai/ha, 14 days after application, read-out: Visual Growth Reduction (%) 14 Days After Application, CHEAL", "description": "as §1", "units": {"pest or weed control at 140 g/ha": "%"}, "values": [{"smiles": "COC(=O)c1nc(-c2ccc(C(F)(F)F)cc2Cl)c(I)cc1Cl", "note": "[F6, Methyl 3-chloro-6-(2-chloro-4-(trifluoromethyl)phenyl)-5-iodopicolinate]", "pest or weed control at 140 g/ha": "0 to 29"}]}, {"test_system": "test plant species", "test": "Post-emergent herbicidal activity test (greenhouse, foliar spray, visual growth reduction)", "format": "in vivo", "conditions": "post-emergence, 336 h, CIRAR: canada thistle (Cirsium arvense), 140 g ai/ha, 14 days after application, read-out: Visual Growth Reduction (%) 14 Days After Application, CIRAR", "description": "as §1", "units": {"pest or weed control at 140 g/ha": "%"}, "values": [{"smiles": "COC(=O)c1nc(-c2ccc(C(F)(F)F)cc2Cl)c(I)cc1Cl", "note": "[F6, Methyl 3-chloro-6-(2-chloro-4-(trifluoromethyl)phenyl)-5-iodopicolinate]", "pest or weed control at 140 g/ha": "60 to 74"}]}, {"test_system": "test plant species", "test": "Post-emergent herbicidal activity test (greenhouse, foliar spray, visual growth reduction)", "format": "in vivo", "conditions": "post-emergence, 336 h, CYPES: yellow nutsedge (Cyperus esculentus), 140 g ai/ha, 14 days after application, read-out: Visual Growth Reduction (%) 14 Days After Application, CYPES", "description": "as §1", "units": {"pest or weed control at 140 g/ha": "%"}, "values": [{"smiles": "COC(=O)c1nc(-c2ccc(C(F)(F)F)cc2Cl)c(I)cc1Cl", "note": "[F6, Methyl 3-chloro-6-(2-chloro-4-(trifluoromethyl)phenyl)-5-iodopicolinate]", "pest or weed control at 140 g/ha": "0 to 29"}]}, {"test_system": "test plant species", "test": "Post-emergent herbicidal activity test (greenhouse, foliar spray, visual growth reduction)", "format": "in vivo", "conditions": "post-emergence, 336 h, DIGSA: crabgrass (Digitaria sanguinalis), 140 g ai/ha, 14 days after application, read-out: Visual Growth Reduction (%) 14 Days After Application, DIGSA", "description": "as §1", "units": {"pest or weed control at 140 g/ha": "%"}, "values": [{"smiles": "COC(=O)c1nc(-c2ccc(C(F)(F)F)cc2Cl)c(I)cc1Cl", "note": "[F6, Methyl 3-chloro-6-(2-chloro-4-(trifluoromethyl)phenyl)-5-iodopicolinate]", "pest or weed control at 140 g/ha": "0 to 29"}]}, {"test_system": "test plant species", "test": "Post-emergent herbicidal activity test (greenhouse, foliar spray, visual growth reduction)", "format": "in vivo", "conditions": "post-emergence, 336 h, barnyardgrass (Echinochloa crus-galli), 14 Days After Application, 140 g ai/ha, read-out: Visual Growth Reduction (%) ECHCG", "description": "as §1", "units": {"pest or weed control at 140 g/ha": "%"}, "values": [{"smiles": "COC(=O)c1nc(-c2ccc(C(F)(F)F)cc2Cl)c(I)cc1Cl", "note": "[F6, Methyl 3-chloro-6-(2-chloro-4-(trifluoromethyl)phenyl)-5-iodopicolinate]", "pest or weed control at 140 g/ha": "0 to 29"}]}, {"test_system": "test plant species", "test": "Post-emergent herbicidal activity test (greenhouse, foliar spray, visual growth reduction)", "format": "in vivo", "conditions": "post-emergence, 336 h, common chickweed (Stellaria media), 14 Days After Application, 140 g ai/ha, read-out: Visual Growth Reduction (%) STEME", "description": "as §1", "units": {"pest or weed control at 140 g/ha": "%"}, "values": [{"smiles": "COC(=O)c1nc(-c2ccc(C(F)(F)F)cc2Cl)c(I)cc1Cl", "note": "[F6, Methyl 3-chloro-6-(2-chloro-4-(trifluoromethyl)phenyl)-5-iodopicolinate]", "pest or weed control at 140 g/ha": "0 to 29"}]}, {"test_system": "test plant species", "test": "Post-emergent herbicidal activity test (greenhouse, foliar spray, visual growth reduction)", "format": "in vivo", "conditions": "post-emergence, 336 h, giant foxtail (Setaria faberi), 14 Days After Application, 140 g ai/ha, read-out: Visual Growth Reduction (%) SETFA", "description": "as §1", "units": {"pest or weed control at 140 g/ha": "%"}, "values": [{"smiles": "COC(=O)c1nc(-c2ccc(C(F)(F)F)cc2Cl)c(I)cc1Cl", "note": "[F6, Methyl 3-chloro-6-(2-chloro-4-(trifluoromethyl)phenyl)-5-iodopicolinate]", "pest or weed control at 140 g/ha": "0 to 29"}]}, {"test_system": "test plant species", "test": "Post-emergent herbicidal activity test (greenhouse, foliar spray, visual growth reduction)", "format": "in vivo", "conditions": "post-emergence, 336 h, ivy-leaf morning glory (Ipomoea hederacea), 14 Days After Application, 140 g ai/ha, read-out: Visual Growth Reduction (%) IPOHE", "description": "as §1", "units": {"pest or weed control at 140 g/ha": "%"}, "values": [{"smiles": "COC(=O)c1nc(-c2ccc(C(F)(F)F)cc2Cl)c(I)cc1Cl", "note": "[F6, Methyl 3-chloro-6-(2-chloro-4-(trifluoromethyl)phenyl)-5-iodopicolinate]", "pest or weed control at 140 g/ha": "45 to 59"}]}, {"test_system": "test plant species", "test": "Post-emergent herbicidal activity test (greenhouse, foliar spray, visual growth reduction)", "format": "in vivo", "conditions": "post-emergence, 336 h, johnsongrass (Sorghum vulgare), 14 Days After Application, 140 g ai/ha, read-out: Visual Growth Reduction (%) SORVU", "description": "as §1", "units": {"pest or weed control at 140 g/ha": "%"}, "values": [{"smiles": "COC(=O)c1nc(-c2ccc(C(F)(F)F)cc2Cl)c(I)cc1Cl", "note": "[F6, Methyl 3-chloro-6-(2-chloro-4-(trifluoromethyl)phenyl)-5-iodopicolinate]", "pest or weed control at 140 g/ha": "45 to 59"}]}, {"test_system": "test plant species", "test": "Post-emergent herbicidal activity test (greenhouse, foliar spray, visual growth reduction)", "format": "in vivo", "conditions": "post-emergence, 336 h, kochia (Bassia scoparia), 14 Days After Application, 140 g ai/ha, read-out: Visual Growth Reduction (%) KCHSC", "description": "as §1", "units": {"pest or weed control at 140 g/ha": "%"}, "values": [{"smiles": "COC(=O)c1nc(-c2ccc(C(F)(F)F)cc2Cl)c(I)cc1Cl", "note": "[F6, Methyl 3-chloro-6-(2-chloro-4-(trifluoromethyl)phenyl)-5-iodopicolinate]", "pest or weed control at 140 g/ha": "45 to 59"}]}, {"test_system": "test plant species", "test": "Post-emergent herbicidal activity test (greenhouse, foliar spray, visual growth reduction)", "format": "in vivo", "conditions": "post-emergence, 336 h, rice (Oryza sativa), 14 Days After Application, 140 g ai/ha, read-out: Visual Growth Reduction (%) ORYSA", "description": "as §1", "units": {"pest or weed control at 140 g/ha": "%"}, "values": [{"smiles": "COC(=O)c1nc(-c2ccc(C(F)(F)F)cc2Cl)c(I)cc1Cl", "note": "[F6, Methyl 3-chloro-6-(2-chloro-4-(trifluoromethyl)phenyl)-5-iodopicolinate]", "pest or weed control at 140 g/ha": "0 to 29"}]}, {"test_system": "test plant species", "test": "Post-emergent herbicidal activity test (greenhouse, foliar spray, visual growth reduction)", "format": "in vivo", "conditions": "post-emergence, 336 h, wheat, spring (Triticum aestivum), 14 Days After Application, 140 g ai/ha, read-out: Visual Growth Reduction (%) TRZAS", "description": "as §1", "units": {"pest or weed control at 140 g/ha": "%"}, "values": [{"smiles": "COC(=O)c1nc(-c2ccc(C(F)(F)F)cc2Cl)c(I)cc1Cl", "note": "[F6, Methyl 3-chloro-6-(2-chloro-4-(trifluoromethyl)phenyl)-5-iodopicolinate]", "pest or weed control at 140 g/ha": "0 to 29"}]}]}
